Results: ChEMBL document CHEMBL3885881, “DrugMatrix”

Organism: Rattus norvegicus
Experiment: DrugMatrix - Regimen: Daily Repeat
Assay type: toxicity, organism-based, Sprague-Dawley
Parameters: regimen Daily Repeat, gender Male, age 6-8 weeks
Conditions: in vivo, po, route oral GAVAGE, […]; for ABSOLUTE BASOPHIL / ABSOLUTE EOSINOPHIL / ABSOLUTE LYMPHOCYTE / ABSOLUTE MONOCYTE / ABSOLUTE SEGMENTED NEUTROPHIL / BASOPHIL / EOSINOPHIL / ERYTHROCYTE COUNT / HEMATOCRIT / HEMOGLOBIN / LEUKOCYTE COUNT / LYMPHOCYTE / MEAN CORPUSCULAR HEMOGLOBIN / MEAN CORPUSCULAR HEMOGLOBIN CONCENTRATION / MEAN CORPUSCULAR VOLUME / MONOCYTE / NEUTROPHIL / NUCLEATED RED BLOOD CELLS / PLATELET COUNT: tissue Blood; for ALANINE AMINOTRANSFERASE / ALBUMIN / ALKALINE PHOSPHATASE / ASPARTATE AMINOTRANSFERASE / BLOOD UREA NITROGEN / CARBON DIOXIDE / CHLORIDE / CHOLESTEROL / CREATINE PHOSPHOKINASE / CREATININE / GLUCOSE / LACTATE DEHYDROGENASE / LIPASE / PHOSPHORUS / POTASSIUM / SODIUM / TOTAL BILIRUBIN / TOTAL PROTEIN / URIC ACID: tissue Plasma
[1] = 300 mg/kg, 120 h, dose level High, time 5 day
[2] = 72 h, dose 2.5 mg/Kg, dose level Low, time 3 day
[3] = 120 h, dose 2.5 mg/Kg, dose level Low, time 5 day

`CC(C)c1c(C(=O)Nc2ccccc2)c(-c2ccccc2)c(-c2ccc(F)cc2)n1CC[C@@H](O)C[C@@H](O)CC(=O)O` [ATORVASTATIN] was tested, and the “ABSOLUTE BASOPHIL” value [1] was 0 CELLS/uL, the “ABSOLUTE EOSINOPHIL” value [1] was 0 CELLS/uL and the “ABSOLUTE LYMPHOCYTE” value [1] was 8045.67 CELLS/uL. The “ABSOLUTE MONOCYTE” value [1] was 74 CELLS/uL, the “ABSOLUTE SEGMENTED NEUTROPHIL” value [1] was 647 CELLS/uL and the BASOPHIL [1] was 0%. For the same compound, the EOSINOPHIL [1] was 0%, the “ERYTHROCYTE COUNT” value [1] was 6.15 x10E6/uL and the HEMATOCRIT [1] was 38.73%. For the same compound, the HEMOGLOBIN [1] was 15.2 G/DL, the “LEUKOCYTE COUNT” value [1] was 8.77 x10E3/uL and the LYMPHOCYTE [1] was 92.33%. The “MEAN CORPUSCULAR HEMOGLOBIN” value [1] was 24.73 pg, the “MEAN CORPUSCULAR HEMOGLOBIN CONCENTRATION” value [1] was 39.27 G/DL and the “MEAN CORPUSCULAR VOLUME” value [1] was 63.03 fL. The MONOCYTE [1] was 0.67%, the NEUTROPHIL [1] was 7% and the “NUCLEATED RED BLOOD CELLS” value [1] was 0 /100WBC. For the same compound, the “PLATELET COUNT” value [1] was 1244.33 x10E3/uL, the “ALANINE AMINOTRANSFERASE” value [1] was 175.67 u/L and the ALBUMIN [1] was 4.63 G/DL. For the same compound, the “ALKALINE PHOSPHATASE” value [1] was 577.33 u/L, the “ASPARTATE AMINOTRANSFERASE” value [1] was 151.33 u/L and the “BLOOD UREA NITROGEN” value [1] was 10.67 mg/dL. For the same compound, the “CARBON DIOXIDE” value [1] was 24.67 mmol/L, the CHLORIDE [1] was 101.67 MEQ/L and the CHOLESTEROL [1] was 52.67 mg/dL. For the same compound, the “CREATINE PHOSPHOKINASE” value [1] was 399.67 u/L, the CREATININE [1] was 0.22 mg/dL and the GLUCOSE [1] was 152.67 mg/dL. For the same compound, the “LACTATE DEHYDROGENASE” value [1] was 140.33 u/L, the LIPASE [1] was 60.67 u/L and the PHOSPHORUS [1] was 9.5 mg/dL. For the same compound, the POTASSIUM [1] was 5.73 MEQ/L, the SODIUM [1] was 145.97 MEQ/L and the “TOTAL BILIRUBIN” value [1] was 0.37 mg/dL. For the same compound, the “TOTAL PROTEIN” value [1] was 6.07 G/DL, the “URIC ACID” value [1] was 0.9 mg/dL and the “ABSOLUTE BASOPHIL” value [2] was 0 CELLS/uL. For the same compound, the “ABSOLUTE EOSINOPHIL” value [2] was 0 CELLS/uL, the “ABSOLUTE LYMPHOCYTE” value [2] was 8659.67 CELLS/uL and the “ABSOLUTE MONOCYTE” value [2] was 90 CELLS/uL. For the same compound, the “ABSOLUTE SEGMENTED NEUTROPHIL” value [2] was 583.67 CELLS/uL, the BASOPHIL [2] was 0% and the EOSINOPHIL [2] was 0%. The “ERYTHROCYTE COUNT” value [2] was 5.09 x10E6/uL, the HEMATOCRIT [2] was 32.3% and the HEMOGLOBIN [2] was 12.6 G/DL. For the same compound, the “LEUKOCYTE COUNT” value [2] was 9.33 x10E3/uL, the LYMPHOCYTE [2] was 92.67% and the “MEAN CORPUSCULAR HEMOGLOBIN” value [2] was 24.77 pg. For the same compound, the “MEAN CORPUSCULAR HEMOGLOBIN CONCENTRATION” value [2] was 39.03 G/DL, the “MEAN CORPUSCULAR VOLUME” value [2] was 63.43 fL and the MONOCYTE [2] was 1%. For the same compound, the NEUTROPHIL [2] was 6.33%, the “NUCLEATED RED BLOOD CELLS” value [2] was 0 /100WBC and the “PLATELET COUNT” value [2] was 1132.33 x10E3/uL. The “ALANINE AMINOTRANSFERASE” value [2] was 62 u/L, the ALBUMIN [2] was 4.07 G/DL and the “ALKALINE PHOSPHATASE” value [2] was 560.67 u/L. The “ASPARTATE AMINOTRANSFERASE” value [2] was 82.67 u/L, the “BLOOD UREA NITROGEN” value [2] was 12.33 mg/dL and the “CARBON DIOXIDE” value [2] was 26 mmol/L. The CHLORIDE [2] was 112 MEQ/L, the CHOLESTEROL [2] was 33.67 mg/dL and the “CREATINE PHOSPHOKINASE” value [2] was 218.33 u/L. For the same compound, the CREATININE [2] was 0.14 mg/dL, the GLUCOSE [2] was 166.67 mg/dL and the “LACTATE DEHYDROGENASE” value [2] was 156.33 u/L. It also gave an LIPASE [2] of 9.33 u/L, a PHOSPHORUS [2] of 9.23 mg/dL and a POTASSIUM [2] of 5.66 MEQ/L. For the same compound, the SODIUM [2] was 156.57 MEQ/L, the “TOTAL BILIRUBIN” value [2] was 0.17 mg/dL and the “TOTAL PROTEIN” value [2] was 5.77 G/DL. The “URIC ACID” value [2] was 0.9 mg/dL, the “ABSOLUTE BASOPHIL” value [3] was 0 CELLS/uL and the “ABSOLUTE EOSINOPHIL” value [3] was 60.67 CELLS/uL. The “ABSOLUTE LYMPHOCYTE” value [3] was 7091.67 CELLS/uL, the “ABSOLUTE MONOCYTE” value [3] was 0 CELLS/uL and the “ABSOLUTE SEGMENTED NEUTROPHIL” value [3] was 581 CELLS/uL. For the same compound, the BASOPHIL [3] was 0%, the EOSINOPHIL [3] was 0.67% and the “ERYTHROCYTE COUNT” value [3] was 5.48 x10E6/uL. The HEMATOCRIT [3] was 34.67%, the HEMOGLOBIN [3] was 13.4 G/DL and the “LEUKOCYTE COUNT” value [3] was 7.73 x10E3/uL. The LYMPHOCYTE [3] was 91.67%, the “MEAN CORPUSCULAR HEMOGLOBIN” value [3] was 24.53 pg and the “MEAN CORPUSCULAR HEMOGLOBIN CONCENTRATION” value [3] was 38.7 G/DL. The “MEAN CORPUSCULAR VOLUME” value [3] was 63.4 fL, the MONOCYTE [3] was 0% and the NEUTROPHIL [3] was 7.67%. The “NUCLEATED RED BLOOD CELLS” value [3] was 0 /100WBC, the “PLATELET COUNT” value [3] was 1069.33 x10E3/uL and the “ALANINE AMINOTRANSFERASE” value [3] was 63.33 u/L. For the same compound, the ALBUMIN [3] was 3.97 G/DL, the “ALKALINE PHOSPHATASE” value [3] was 478 u/L and the “ASPARTATE AMINOTRANSFERASE” value [3] was 92 u/L. For the same compound, the “BLOOD UREA NITROGEN” value [3] was 11.33 mg/dL, the “CARBON DIOXIDE” value [3] was 29.67 mmol/L and the CHLORIDE [3] was 98.33 MEQ/L. The CHOLESTEROL [3] was 40.67 mg/dL, the “CREATINE PHOSPHOKINASE” value [3] was 375.33 u/L and the CREATININE [3] was 0.14 mg/dL. For the same compound, the GLUCOSE [3] was 160 mg/dL, the “LACTATE DEHYDROGENASE” value [3] was 97.33 u/L and the LIPASE [3] was 9 u/L. It also gave a PHOSPHORUS [3] of 11.03 mg/dL, a POTASSIUM [3] of 5.44 MEQ/L and an SODIUM [3] of 144.03 MEQ/L. The “TOTAL BILIRUBIN” value [3] was 0.13 mg/dL, the “TOTAL PROTEIN” value [3] was 6.13 G/DL and the “URIC ACID” value [3] was 0.43 mg/dL.
